Data reported in ChEMBL document CHEMBL1121624, “Synthesis, biological evaluation, and preliminary structure-activity considerations of a series of alkylphenols as intravenous anesthetic agents” (J Med Chem, 1980).

Key:
Mus musculus [1] = species: Mus musculus; assay: Hypnotic activity was measured as dose which causes loss of righting reflex for a minimum period of 30s in 50% of mice; Range is 20-30; format: functional
Mus musculus [2] = species: Mus musculus; assay: Duration of analgesic action in mice was determined; B = brief, < 5 min; format: functional, organism-based
Mus musculus [3] = species: Mus musculus; assay: Speed of induction of analgesia in mice was determined; I = immediate, <10 s; format: functional, organism-based
Mus musculus [4] = species: Mus musculus; assay: Hypnotic activity was measured as dose which causes loss of righting reflex for a minimum period of 30s in 50% of mice; Range is 10-15; format: functional
[5] = Acute toxicity measured as median lethal dose in mice; Range is 100-120; format: organism-based; conditions: mouse, in vivo
Mus musculus [6] = species: Mus musculus; assay: Speed of induction of analgesia in mice was determined; S = slow, 10-15 s; format: functional, organism-based
Mus musculus [7] = species: Mus musculus; assay: Duration of analgesic action in mice was determined; L = long, >10; format: functional, organism-based
Mus musculus [8] = species: Mus musculus; assay: Hypnotic activity was measured as dose which causes loss of righting reflex for a minimum period of 30s in 50% of mice; format: functional
[9] = Acute toxicity measured as median lethal dose in mice; Range is 80-100; format: organism-based; conditions: mouse, in vivo
[10] = Acute toxicity measured as median lethal dose in mice; format: organism-based; conditions: mouse, in vivo
[11] = Acute toxicity measured as median lethal dose in mice; […]; format: organism-based; conditions: mouse, in vivo
Mus musculus [12] = species: Mus musculus; assay: Hypnotic activity was measured as dose which causes loss of righting reflex for a minimum period of 30s in 50% of mice; Range is 10-20; format: functional
in vivo = conditions: mouse
Mus musculus [13] = species: Mus musculus; assay: Hypnotic activity was measured as dose which causes loss of righting reflex for a minimum period of 30s in 50% of mice; Range is 5-10; format: functional
Mus musculus [14] = species: Mus musculus; assay: Hypnotic activity was measured as dose which causes loss of righting reflex for a minimum period of 30s in 50% of mice; Range is 30-40; format: functional
Mus musculus [15] = species: Mus musculus; assay: Hypnotic activity was measured as dose which causes loss of righting reflex for a minimum period of 30s in 50% of mice; Range is 20-40; format: functional
Mus musculus [16] = species: Mus musculus; assay: Speed of induction of analgesia in mice was determined; VS = very slow, > 15s; format: functional, organism-based
[17] = Acute toxicity measured as median lethal dose in mice; Range is 120-140; format: organism-based; conditions: mouse, in vivo
Mus musculus [18] = species: Mus musculus; assay: Hypnotic activity was measured as dose which causes loss of righting reflex for a minimum period of 30s in 50% of mice; Range is 15-20; format: functional
[19] = Acute toxicity measured as median lethal dose in mice; Range is 60-80; format: organism-based; conditions: mouse, in vivo
[20] = Acute toxicity measured as median lethal dose in mice; Range is 40-60; format: organism-based; conditions: mouse, in vivo
Mus musculus [21] = species: Mus musculus; assay: Duration of analgesic action in mice was determined; M = moderate, 5-10 min; format: functional, organism-based
Mus musculus [22] = species: Mus musculus; assay: Hypnotic activity was measured as dose which causes loss of righting reflex for a minimum period of 30s in 50% of mice; Range is 20-25; format: functional
[23] = Acute toxicity measured as median lethal dose in mice; Range is 80-90; format: organism-based; conditions: mouse, in vivo
Mus musculus [24] = species: Mus musculus; assay: Hypnotic activity was measured as dose which causes loss of righting reflex for a minimum period of 30s in 50% of mice; Range is 40-60; format: functional

## Cc1cccc(C)c1O
Mus musculus [1]
  HD50: 20 mg/kg
Mus musculus [2]
  Duration of action: Brief duration
Mus musculus [3]
  Speed of induction: Immediate induction

## C=CCC1(C(C)C#CCC)C(=O)NC(=O)N(C)C1=O (centres undefined)
Mus musculus [2]
  Duration of action: Brief duration
Mus musculus [3]
  Speed of induction: Immediate

## CCCCC(C)c1cccc(C(C)C)c1O (centres undefined)
Mus musculus [4]
  HD50: 10 mg/kg
[5]
  LD50: 100 mg/kg
Mus musculus [6]
  Speed of induction: Slow
Mus musculus [7]
  Duration of action: Long

## CCc1cc(C(C)C)c(O)c(C(C)C)c1
Mus musculus [8]
  HD50: 20 mg/kg
[9]
  LD50: 80 mg/kg

## CCC(C)c1cc(C)cc(C(C)CC)c1O (centres undefined)
Mus musculus [8]
  HD50: 30 mg/kg
[10]
  LD50: 140 mg/kg

## Cc1cc(C(C)(C)C)ccc1O
Mus musculus [8]
  HD50: 80 mg/kg
[11]
  LD50: 180 mg/kg

## CCC(C)c1ccc(O)c(C(C)CC)c1 (centres undefined)
Mus musculus [1]
  HD50: 20 mg/kg
[10]
  LD50: 120 mg/kg

## CCCC(C)c1cccc(CC)c1O (centres undefined)
Mus musculus [2]
  Duration of action: Brief duration
Mus musculus [3]
  Speed of induction: Immediate
[5]
  LD50: 100 mg/kg
Mus musculus [12]
  HD50: 10 mg/kg

## CC(C)c1cccc(C(C)C)c1O [PROPOFOL]
Mus musculus [2]
  Duration of action: Brief duration
Mus musculus [3]
  Speed of induction: Immediate induction
In vivo
  LD50: 50 mg/kg
Mus musculus [13]
  HD50: 5 mg/kg

## C=CCC1(C(C)C#CCC)C(=O)N=C([O-])N(C)C1=O.[Na+] (centres undefined) [METHOHEXITAL SODIUM]
[10]
  LD50: 30 mg/kg
Mus musculus [13]
  HD50: 5 mg/kg

## CC(C)c1cccc(C2CCCCC2)c1O
[5]
  LD50: 100 mg/kg
Mus musculus [6]
  Speed of induction: Slow
Mus musculus [7]
  Duration of action: Long
Mus musculus [14]
  HD50: 30 mg/kg

## CCCCc1cccc(CCC)c1O
Mus musculus [15]
  HD50: 20 mg/kg
Mus musculus [2]
  Duration of action: Brief duration
Mus musculus [16]
  Speed of induction: Very slow
[5]
  LD50: 100 mg/kg

## CCC(C)c1cccc(C2CC2)c1O (centres undefined)
Mus musculus [15]
  HD50: 20 mg/kg
[17]
  LD50: 120 mg/kg
Mus musculus [2]
  Duration of action: Brief duration
Mus musculus [6]
  Speed of induction: Slow

## CCCc1cccc(C(C)C)c1O
Mus musculus [1]
  HD50: 20 mg/kg
Mus musculus [2]
  Duration of action: Brief duration
[10]
  LD50: 80 mg/kg
Mus musculus [3]
  Speed of induction: Immediate

## CCCCCC(C)c1cccc(C)c1O (centres undefined)
[10]
  LD50: 100 mg/kg
Mus musculus [18]
  HD50: 15 mg/kg
Mus musculus [16]
  Speed of induction: Very slow
Mus musculus [7]
  Duration of action: Long

## Cc1ccc(C(C)C)cc1O [CARVACROL]
[9]
  LD50: 80 mg/kg
Mus musculus [14]
  HD50: 30 mg/kg

## CCc1cccc(CC)c1O
Mus musculus [2]
  Duration of action: Brief duration
[10]
  LD50: 100 mg/kg
Mus musculus [18]
  HD50: 15 mg/kg
Mus musculus [6]
  Speed of induction: Slow induction

## CCc1cccc(C(C)CC)c1O (centres undefined)
Mus musculus [2]
  Duration of action: Brief duration
[10]
  LD50: 80 mg/kg
Mus musculus [3]
  Speed of induction: Immediate
Mus musculus [4]
  HD50: 10 mg/kg

## CCc1cccc(C(C)C)c1O
Mus musculus [2]
  Duration of action: Brief duration
Mus musculus [18]
  HD50: 15 mg/kg
Mus musculus [3]
  Speed of induction: Immediate
[19]
  LD50: 60 mg/kg

## CC(C)c1ccc(O)cc1
[20]
  LD50: 40 mg/kg
Mus musculus [14]
  HD50: 30 mg/kg

## CCc1ccc(O)c(C(C)C)c1
Mus musculus [8]
  HD50: 40 mg/kg
[10]
  LD50: 120 mg/kg

## Cc1cc(C(C)C)c(O)c(C(C)C)c1
Mus musculus [8]
  HD50: 20 mg/kg
[9]
  LD50: 80 mg/kg

## CNC1(c2ccccc2Cl)CCCCC1=O.Cl (centres undefined) [KETAMINE HYDROCHLORIDE]
Mus musculus [2]
  Duration of action: Brief duration
[10]
  LD50: 60 mg/kg
Mus musculus [4]
  HD50: 10 mg/kg
Mus musculus [6]
  Speed of induction: Slow

## CCC(C)c1cccc(C(C)CC)c1O (centres undefined)
[10]
  LD50: 60 mg/kg
Mus musculus [21]
  Duration of action: Moderate
Mus musculus [6]
  Speed of induction: Slow
Mus musculus [13]
  HD50: 5 mg/kg

## CCCC(C)C1(CC)C(=O)[N-]C(=S)NC1=O.[Na+] (stereo in doubt; form 2) [THIOPENTAL SODIUM]
Mus musculus [22]
  HD50: 20 mg/kg
[23]
  LD50: 80 mg/kg

## CCCc1cccc(C(C)CC)c1O (centres undefined)
Mus musculus [2]
  Duration of action: Brief duration
[10]
  LD50: 120 mg/kg
Mus musculus [6]
  Speed of induction: Slow
Mus musculus [12]
  HD50: 10 mg/kg

## Cc1cccc(C(C)(C)C)c1O
[17]
  LD50: 120 mg/kg
Mus musculus [2]
  Duration of action: Brief duration
Mus musculus [3]
  Speed of induction: Immediate induction
Mus musculus [24]
  HD50: 40 mg/kg

## CCCC(C)c1cccc(C(C)C)c1O (centres undefined)
[10]
  LD50: 80 mg/kg
Mus musculus [4]
  HD50: 10 mg/kg
Mus musculus [6]
  Speed of induction: Slow
Mus musculus [7]
  Duration of action: Long
